Read-outs that look alike come from different tables or passages of the source.
What was measured:
[1] = test system: juvenile soft ticks (Ornithodoros moubata); assay: Guinea pig - efficacy against argaside tick; type: in vivo
Procedure, shortened: (§1)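 Guinea pigs given 5 mg/kg test compound orally (gavage) or s.c. in 10% DMF/emulsifier plus 90% water for injection, with local co-infestations of Ornithodoros moubata juveniles and Cimex lectularius at several post-treatment times. Engorged parasites scored dead/damaged about 24 h after collection; % inhibition versus pretreatment baseline by modified Schneider-Orelli formula.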

[2] = test system: Fly larvae I (Lucilia cuprina); assay: Fly larvae contact/feeding assay; conditions: 48 h, read-out: Inhibition of fly larvae development
Procedure: Fly larvae I (Lucilia cuprina) were grown in medium spiked with declining concentrations of a test compound (dissolved in a DMSO-emulsifier-deionized water mixture). Inhibition of fly larvae development (%) was assessed after approximately 48 hours of continuous exposure. The vitality of used parasites was confirmed in negative control groups (i.e., an untreated control and a solvent control).

[3] = test system: Adult fleas (Ctenocephalides felis); assay: Flea feeding assay; conditions: read-out: flea inhibition (% of dead+damaged fleas)
Procedure: Adult fleas (Ctenocephalides felis) of defined age were fed on artificial membranes with blood spiked with declining concentrations of a test compound (dissolved in a DMSO-emulsifier-blood mixture). After approximately 48 hours of continuous feeding, flea inhibition (i.e., % of dead+damaged fleas per test concentration) was assessed. The vitality of used parasites was confirmed in negative control groups (i.e., an untreated control and a solvent control).

[4] = test system: Mobile stages of sea lice (pre-adults, adults of Lepeophtheirus salmonis); assay: Adult sea lice contact assay; conditions: read-out: EC50 (sea lice inhibition, dead+damaged)
Procedure: Mobile stages of sea lice (i.e., pre-adults, adults of Lepeophtheirus salmonis) were exposed to seawater spiked with declining concentrations of a test compound (dissolved in a PEG sea-water mixture). Sea lice inhibition (% of dead+damaged sea lice) was assessed after approximately 1 and 24 hours of continuous exposure in comparison to a negative (solvent) control group.

[5] = test system: Rhipicephalus microplus tick larvae; assay: Tick larvae contact assay; conditions: read-out: Tick inhibition (% of damage+dead ticks)
Procedure: Tick larvae (Rhipicephalus microplus) were immersed for approximately 3 minutes in declining concentrations of a test compound (dissolved in a DMSO-emulsifier-deionized water mixture). Tick inhibition (% of damage+dead ticks per test concentration) was assessed approximately 24 hours after contact exposure. The vitality of used parasites was confirmed in negative control groups (i.e. an untreated control and a solvent control).

Rhipicephalus microplus = assay: Cattle - efficacy against one-host tick; type: in vivo
Procedure, shortened: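 Cattle infested whole-body with up to 3000 R. microplus larvae two or three times weekly around Day 0, then given 1 mg/kg subcutaneously or topically (spray or pour-on); controls got excipients only. Engorged females dropping were counted daily; efficacy by ADEQ per WAAVP guidelines, onset/duration as first/last day ≥80%.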

[6] = test system: Copepodids (juvenile sea lice stage of Lepeophtheirus salmonis); assay: Juvenile sea lice contact assay; conditions: Lepeophtheirus salmonis, read-out: Sea lice inhibition (% of dead+damaged copepodids)
Procedure: Copepodids (juvenile sea lice stage of Lepeophtheirus salmonis) were exposed to seawater spiked with declining concentrations of a test compound (dissolved in a DMSO sea-water mixture). Sea lice inhibition (% of dead+damaged copepodids) was assessed after approximately 24 hours of continuous exposure. The vitality of used parasites was confirmed in a negative (solvent) control group.

[7] = test system: bed bugs (Cimex lectularius); assay: Guinea pig - efficacy against bed bug; type: in vivo; conditions: for effective to control bed bugs: 5 mg/kg
Procedure, shortened: as §1

[8] = test system: Rhipicephalus sanguineus or Haemaphysalis elliptica ticks; assay: Dog - efficacy against ticks; type: in vivo; conditions: for therapeutic efficacy against ticks (active = efficacy ≥80 percent): D2
Procedure: (§2) Beagle dogs were infested (whole body) with 80 Ctenocephalides felis fleas and 50 Rhipicephalus sanguineus or Haemaphysalis elliptica ticks (sex ratio 1:1) two days before the treatment day (Day 0), and repeatedly thereafter. Dogs of treatment groups were treated with 10 mg/kg bodyweight of a test compound orally (compound weighed in gelatin capsule), topically (spot-on, DMA 92%/DEET 8%) or subcutaneously (PEG 200 90%/water for injection 10%). Dogs of the negative control group received only an empty gelatin capsule orally and the spot-on formulation excipients topically.
(§3) Compounds with efficacy ≥80 percent were found active.

[9] = test system: Ctenocephalides felis fleas; assay: Dog - efficacy against fleas; type: in vivo; conditions: for therapeutic efficacy against fleas (active = efficacy ≥80 percent): D2
Procedure: as §2, §3

[10] = test system: Tick nymphs (stage III, Ornithodoros moubata); assay: Tick feeding assay; conditions: read-out: Tick inhibition (% of damaged+dead ticks at molting-assessment)
Procedure: Tick nymphs (stage III, Ornithodoros moubata) were fed on artificial membranes with blood spiked with declining concentrations of a test compound (dissolved in a DMSO-emulsifier-blood mixture). Fed nymphs were incubated for around 2-3 weeks to enable tick molting into the next stage. Tick inhibition (i.e, % of damaged+dead ticks at molting-assessment per test concentration) was assessed. The vitality of used parasites was confirmed in negative control groups (i.e., an untreated control and a solvent control).

Lepeophtheirus salmonis [11] = assay: Salmon - in vivo efficacy against sea lice using gavage administration; conditions: po, 168 h, read-out: therapeutic efficacy against (pre-)adult sea lice (% reduction vs control), salmon, 5 mg/kg once by gavage, day -28 infestation, counted day 7
Lepeophtheirus salmonis [12] = assay: as above; conditions: 5 mg/kg once by gavage, day -3 infestation, counted around day 28
Procedure, shortened: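 Salmon given a single oral gavage of 5 mg/kg in 5% DMSO/95% fish oil on day 0, with vehicle controls. L. salmonis copepodid infestations around days −28, −3 and 17; lice counted by stage around day 28, efficacy as % reduction versus control by Abbott's formula.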

[13] = 5 mg/kg subcutaneous, after 7 days
[14] = 5 mg/kg subcutaneous, after 10 days
[15] = 5 mg/kg subcutaneous, after 14 days
[16] = 5 mg/kg subcutaneous, after 17 days
[17] = 5 mg/kg, at least until Day 10, both administration routes (oral, subcutaneous)
[18] = 1 mg/kg topical (Compound 4: spray solution; others: DMA 92%/DEET 8% pour-on)
[19] = at least until Day 10, both administration routes (oral, subcutaneous)

O=C(Nc1ccc(F)cc1)c1cc(NC(=O)[C@H]2[C@H](c3cc(Cl)cc(Cl)c3)C2(Cl)Cl)ccc1F (racemic) [Compound 4]
2 days: onset of efficacy (first Day with efficacy ≥80 percent) (Rhipicephalus microplus; 1 mg/kg subcutaneous)
100%: effective to control ticks [1, 17] | effective to control ticks ([1]; 5 mg/kg, for at least one week, both administration routes) | effective to control bed bugs [7, 19] | effective to control bed bugs ([7]; for at least one week, both administration routes)
immediate activity: activity against tick nymphs (≥80% inhibition, killed+damaged) ([1]; 5 mg/kg oral, Day 0) | activity against tick nymphs (≥80% inhibition, killed+damaged) ([1]; 5 mg/kg subcutaneous, Day 0) | activity against bed bugs (≥80% inhibition, killed+damaged) ([7]; 5 mg/kg oral, Day 0) | activity against bed bugs (≥80% inhibition, killed+damaged) ([7]; 5 mg/kg subcutaneous, Day 0)
10 to 25 nM: EC50 [4]
≥ 80%: inhibition at 25 µM [5] | inhibition at 0.1 µM ([6]; 24 h)
active: therapeutic efficacy against ticks (active = efficacy ≥80 percent) ([8]; 10 mg/kg oral) | therapeutic efficacy against ticks (active = efficacy ≥80 percent) ([8]; 10 mg/kg subcutaneous) | therapeutic efficacy against fleas (active = efficacy ≥80 percent) ([9]; 10 mg/kg oral) | therapeutic efficacy against fleas (active = efficacy ≥80 percent) ([9]; 10 mg/kg subcutaneous)
3 days: onset of efficacy (first Day with efficacy ≥80 percent) (Rhipicephalus microplus; [18])
therapeutic efficacy: efficacy against ticks in dogs (conclusion) ([8]; 10 mg/kg) | efficacy against fleas in dogs (conclusion) ([9]; 10 mg/kg)
80%: inhibition at 100 ppm [2] | inhibition at 1 ppm ([3]; 48 h) | inhibition at 100 ppm [5] | inhibition at 1 ppm [10]
longer duration of efficacy: duration of efficacy, subcutaneous compared with oral administration ([1]; 5 mg/kg, ticks and bed bugs)
38 days: duration of efficacy (last Day with efficacy ≥80 percent) (Rhipicephalus microplus; 1 mg/kg subcutaneous)
86 D: active against fleas up to (efficacy ≥80 percent) ([9]; 10 mg/kg subcutaneous, repeated infestations)
58 days: duration of efficacy (last Day with efficacy ≥80 percent) (Rhipicephalus microplus; [18])
activity: activity against tick nymphs (≥80% inhibition, killed+damaged) ([1]; 5 mg/kg oral, after 7 days) | activity against tick nymphs (≥80% inhibition, killed+damaged) ([1]; 5 mg/kg oral, after 10 days) | activity against tick nymphs (≥80% inhibition, killed+damaged) ([1]; 5 mg/kg oral, after 14 days) | activity against tick nymphs (≥80% inhibition, killed+damaged) [1, 13] | activity against tick nymphs (≥80% inhibition, killed+damaged) [1, 14] | activity against tick nymphs (≥80% inhibition, killed+damaged) [1, 15] | activity against tick nymphs (≥80% inhibition, killed+damaged) [1, 16] | activity against bed bugs (≥80% inhibition, killed+damaged) ([7]; 5 mg/kg oral, after 7 days) | activity against bed bugs (≥80% inhibition, killed+damaged) ([7]; 5 mg/kg oral, after 10 days) | activity against bed bugs (≥80% inhibition, killed+damaged) ([7]; 5 mg/kg oral, after 14 days) | activity against bed bugs (≥80% inhibition, killed+damaged) [7, 13] | activity against bed bugs (≥80% inhibition, killed+damaged) [7, 14] | activity against bed bugs (≥80% inhibition, killed+damaged) [7, 15] | activity against bed bugs (≥80% inhibition, killed+damaged) [7, 16]

O=C(Nc1ncc(F)cc1F)c1cc(NC(=O)[C@H]2[C@H](c3ccc(Cl)c(Cl)c3)C2(Cl)Cl)ccc1Cl [Compound 86]
100%: effective to control ticks [1, 17] | inhibition in vivo at 5 mg/kg (Lepeophtheirus salmonis [11]) | therapeutic efficacy against juvenile sea lice (% reduction vs control) (Lepeophtheirus salmonis [12]) | inhibition at 0.01 µM ([6]; 10 nM in seawater, ~24 h) | effective to control bed bugs [7, 19]
≤ 10 nM: EC50 ([4]; pre-adults/adults, assessed after ~1 and 24 h)
immediate activity: activity against tick nymphs (≥80% inhibition, killed+damaged) ([1]; 5 mg/kg oral, Day 0) | activity against tick nymphs (≥80% inhibition, killed+damaged) ([1]; 5 mg/kg subcutaneous, Day 0) | activity against bed bugs (≥80% inhibition, killed+damaged) ([7]; 5 mg/kg oral, Day 0) | activity against bed bugs (≥80% inhibition, killed+damaged) ([7]; 5 mg/kg subcutaneous, Day 0)
80%: inhibition at 100 ppm [2] | inhibition at 1 ppm ([3]; 1 ppm in blood, ~48 h membrane feeding) | inhibition at 100 ppm ([5]; 100 ppm, ~3 min immersion, assessed ~24 h after)
activity: activity against tick nymphs (≥80% inhibition, killed+damaged) ([1]; 5 mg/kg oral, after 7 days) | activity against tick nymphs (≥80% inhibition, killed+damaged) ([1]; 5 mg/kg oral, after 10 days) | activity against tick nymphs (≥80% inhibition, killed+damaged) [1, 13] | activity against tick nymphs (≥80% inhibition, killed+damaged) [1, 14] | activity against bed bugs (≥80% inhibition, killed+damaged) ([7]; 5 mg/kg oral, after 7 days) | activity against bed bugs (≥80% inhibition, killed+damaged) ([7]; 5 mg/kg oral, after 10 days) | activity against bed bugs (≥80% inhibition, killed+damaged) [7, 13] | activity against bed bugs (≥80% inhibition, killed+damaged) [7, 14]
